Measured values published in PubChem BioAssay (NCI).
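Results reflect a 48-hour exposure of cells in 96-well plates to compound at five concentrations. Definition used: TGI = concentration required for complete inhibition of growth.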

Key:
Experiment in all cases: growth of human tumour cells (NCI), 48 h
HT29 colon = tested on: HT29 colon
MOLT-4 leukemia = tested on: MOLT-4 leukemia
HCC-2998 colon = tested on: HCC-2998 colon
A498 renal = tested on: A498 renal
TK-10 renal = tested on: TK-10 renal
SK-MEL-28 melanoma = tested on: SK-MEL-28 melanoma
IGROV1 ovarian = tested on: IGROV1 ovarian
HCT-15 colon = tested on: HCT-15 colon
OVCAR-8 ovarian = tested on: OVCAR-8 ovarian
SNB-75 CNS = tested on: SNB-75 CNS

SMILES	TGI (HT29 colon) [µM]	TGI (MOLT-4 leukemia) [µM]	TGI (HCC-2998 colon) [µM]	TGI (A498 renal) [µM]	TGI (TK-10 renal) [µM]	TGI (SK-MEL-28 melanoma) [µM]	TGI (IGROV1 ovarian) [µM]	TGI (HCT-15 colon) [µM]	TGI (OVCAR-8 ovarian) [µM]	TGI (SNB-75 CNS) [µM]
Cc1ccc(C2=C(C#N)C(N)OC3=C2COc2ccccc23)cc1 (stereo not drawn)	> 100	> 100	> 100	50.2	44.4	> 100	> 100	> 100		
COC(=O)c1c(O)ccc2[nH]c3c(O)c4ccccc4cc3c12	> 100	> 100	32.8	> 100	> 100	76.4	43.5	48.1	48.9	
Cc1ccc(-c2nc(N/N=C/c3ccc(O)cc3)c3ccccc3n2)cc1	> 100	> 100	30.8		68.5	81.5	> 100	> 100	> 100	64
Cc1n[nH]c(=O)n1/N=C\c1ccccc1	> 100	> 100	> 100	> 100	> 100	> 100	> 100	> 100	> 100	
Cc1cc(S(=O)(=O)Nc2nc3ccccc3nc2-c2ccc(Cl)cc2)c(S)cc1Cl	31.4	42.2	29.1	30.7	63.7	31	24.9	42.2	51.6	
CC(=O)Oc1c2c(c3n(c1=O)CCCC3)C(=O)N(c1ccccc1)C2=O	> 100	> 100	97.2		> 100	> 100	> 100	> 100	> 100	> 100
O=C(c1ccc(Cl)cc1)N(C(=S)N1CCN(c2ccccn2)CC1)C1CCCCC1	> 100	96.5			> 100	> 100	> 100	> 100	> 100	> 100
O=C1CC[C@@]2(O)[C@H]3Cc4ccc(-c5ccccc5)c5c4[C@@]2(CCN3CC2CC2)[C@H]1O5	27.8	43.5	33.8	36.6	36.4	> 100	> 100	41.2	32.4	
CC(O)(P(=O)(O)O)P(=O)(O)OCC(O)CN1CCOCC1 (stereo not drawn)	> 100	> 100	> 100	> 100	> 100	> 100	> 100	> 100	> 100	
CC(=O)NC(C)(C)C1CCC(C)=C(c2ccccc2)C1 (stereo not drawn)	> 100	> 100	> 100		> 100	> 100	> 100	> 100	> 100	> 100
